Measured values as given in patent US4966891A, “Fluorocytidine derivatives” (priority 1987, dated 1990).

System: Meth A fibrosarcoma
Assay: Antitumor testing against Meth A fibrosarcoma (oral, s.c. implanted)
Assay type: in vivo, mice
Details: Mus musculus, read-out: Inhibition of tumor growth; for inhibition in vivo at 800 µmol/kg: 0.8 mmole/kg/day × 7, p.o.; for inhibition in vivo at 1500 µmol/kg: 1.5 mmole/kg/day × 7, p.o.; for inhibition in vivo at 3000 µmol/kg: 3.0 mmole/kg/day × 7, p.o.
Procedure: Sarcoma 180 cells (2×10^6 cells) were implanted subcutaneously into mice (20-22 g) on day 0. The compounds of the present invention were administered daily from day 1 through 7 orally. The animals were sacrificed on day 14 and tumors were excised and weighed. The percent inhibition of tumor growth given in Table 1 below was calculated from the formula:
T=weight of the tumors from the treated group, C=weight of the tumors from the control group.
Meth A fibrosarcoma cells (2×10^5 cells) were implanted subcutaneously into mice (21-22 g). The testing against Meth A fibrosarcoma and the calculation of the percent inhibition of tumor growth were effected according to a manner analogous to that of the testing against Sarcoma 180.

C[C@H]1O[C@@H](n2cc(F)c(NC(=O)c3ccc(F)cc3)nc2=O)[C@H](O)[C@@H]1O [Example 23, 5'-deoxy-5-fluoro-N^4-(4-fluorobenzoyl)cytidine]
inhibition in vivo at 800 µmol/kg: 56%
inhibition in vivo at 1500 µmol/kg: 64%

C[C@H]1O[C@@H](n2cc(F)c(NC(=O)Cc3c[nH]c4ccccc34)nc2=O)[C@H](O)[C@@H]1O [Example 54, 5'-deoxy-5-fluoro-N^4-(3-indolylacetyl)cytidine]
inhibition in vivo at 1500 µmol/kg: 55%
inhibition in vivo at 3000 µmol/kg: 85%

Cc1ccc(C(=O)Nc2nc(=O)n([C@@H]3O[C@H](C)[C@@H](O)[C@H]3O)cc2F)cc1C [Example 53]
inhibition in vivo at 1500 µmol/kg: 48%
inhibition in vivo at 3000 µmol/kg: 85%

C[C@H]1O[C@@H](n2cc(F)c(NC(=O)Cc3ccccc3)nc2=O)[C@H](O)[C@@H]1O [Example 14]
inhibition in vivo at 1500 µmol/kg: 66%
inhibition in vivo at 3000 µmol/kg: 94%

Cc1cccc(C(=O)Nc2nc(=O)n([C@@H]3O[C@H](C)[C@@H](O)[C@H]3O)cc2F)c1 [Example 18]
inhibition in vivo at 1500 µmol/kg: 51%
inhibition in vivo at 3000 µmol/kg: 91%

C[C@H]1O[C@@H](n2cc(F)c(N)nc2=O)[C@H](OC(=O)c2ccccc2)[C@@H]1OC(=O)c1ccccc1 [Example 57, 2',3'-di-O-benxoyl-5'-deoxy-5-fluorocytidine]
inhibition in vivo at 1500 µmol/kg: 28%
inhibition in vivo at 3000 µmol/kg: 56%

Cc1ccccc1C(=O)Nc1nc(=O)n([C@@H]2O[C@H](C)[C@@H](O)[C@H]2O)cc1F [Example 19]
inhibition in vivo at 1500 µmol/kg: 3%
inhibition in vivo at 3000 µmol/kg: 64%

COc1cc(OC)cc(C(=O)Nc2nc(=O)n([C@@H]3O[C@H](C)[C@@H](O)[C@H]3O)cc2F)c1 [Example 27]
inhibition in vivo at 1500 µmol/kg: 58%
inhibition in vivo at 3000 µmol/kg: 91%

C[C@H]1O[C@@H](n2cc(F)c(NC(=O)c3cccc([N+](=O)[O-])c3)nc2=O)[C@H](O)[C@@H]1O [Example 30]
inhibition in vivo at 1500 µmol/kg: 55%
inhibition in vivo at 3000 µmol/kg: 58%

C[C@H]1O[C@@H](n2cc(F)c(NC(=O)c3ccc([N+](=O)[O-])cc3)nc2=O)[C@H](O)[C@@H]1O [Example 29]
inhibition in vivo at 1500 µmol/kg: 49%
inhibition in vivo at 3000 µmol/kg: 92%

COc1ccccc1C(=O)Nc1nc(=O)n([C@@H]2O[C@H](C)[C@@H](O)[C@H]2O)cc1F [Example 25]
inhibition in vivo at 1500 µmol/kg: -6%
inhibition in vivo at 3000 µmol/kg: 34%

COC(=O)c1ccc(C(=O)Nc2nc(=O)n([C@@H]3O[C@H](C)[C@@H](O)[C@H]3O)cc2F)cc1 [Example 31, 5'-deoxy-5-fluoro-N^4-(4-methoxycarbonylbenzoyl)cytidine]
inhibition in vivo at 1500 µmol/kg: 55%
inhibition in vivo at 3000 µmol/kg: 84%

C=CCC(=O)Nc1nc(=O)n([C@@H]2O[C@H](C)[C@@H](O)[C@H]2O)cc1F [Example 49, N^4-(3-butenoyl)-5'-deoxy-5-fluorocytidine]
inhibition in vivo at 1500 µmol/kg: 58%
inhibition in vivo at 3000 µmol/kg: 76%

C[C@H]1O[C@@H](n2cc(F)c(NC(=O)c3ccco3)nc2=O)[C@H](O)[C@@H]1O [Example 36, 5'-deoxy-5-fluoro-N^4-(2-furoyl)cytidine]
inhibition in vivo at 1500 µmol/kg: 53%
inhibition in vivo at 3000 µmol/kg: 92%

C[C@H]1O[C@@H](n2cc(F)c(N)nc2=O)[C@H](O)[C@@H]1OC(=O)c1ccccc1 [Example 59, 3'-O-benzoyl-5'-deoxy-5-fluorocytidine]
inhibition in vivo at 1500 µmol/kg: 23%
inhibition in vivo at 3000 µmol/kg: 80%

COc1ccc(C(=O)Nc2nc(=O)n([C@@H]3O[C@H](C)[C@@H](O)[C@H]3O)cc2F)c(OC)c1 [Example 28]
inhibition in vivo at 1500 µmol/kg: -13%
inhibition in vivo at 3000 µmol/kg: -13%

C[C@H]1O[C@@H](n2cc(F)c(NC(=O)c3ccc(Cl)cc3)nc2=O)[C@H](O)[C@@H]1O [Example 20]
inhibition in vivo at 1500 µmol/kg: 53%
inhibition in vivo at 3000 µmol/kg: 84%

C[C@H]1O[C@@H](n2cc(F)c(NC(=O)c3ccc4c(c3)OCO4)nc2=O)[C@H](O)[C@@H]1O [Example 48, 5'-deoxy-5-fluoro-N^4-piperonyloylcytidine]
inhibition in vivo at 800 µmol/kg: 42%
inhibition in vivo at 1500 µmol/kg: 72%
